Data taken from US9512118B2, “Crystal of fused heterocyclic compound” (TAKEDA PHARMACEUTICAL COMPANY LIMITED, priority 2011, dated 2016).
In brackets after ≈: the same amount, converted by molar mass. Like-named read-outs stand apart in the source and are kept apart here. Each block holds one compound with its values, some of them ahead of it.

Assays:
[1] = Study of crystallization from various solvents (solubility at 55° C. and crystal form obtained); assay type: physicochemical; settings: for solubility: 55 °C, organic solvent or mixture, thermodynamic from solid; for crystal form: dissolved at 55° C., cooled to 0-5° C., stirred 8 hr
Procedure: This solution was filtered through a filter with 0.22 μm pore size, and cooled to 0-5° C. with stirring. The mixture was stirred for 8 hr under cooling at 0-5° C.

[2] = room temperature
Source text: After stirring for one week, and after stirring for 2 weeks, the crystals of 1-ethyl-7-methyl-3-{4-[(3-methyl-3H-imidazo[4,5-b]pyridin-2-yl)oxy]phenyl}-1,3-dihydro-2H-imidazo[4,5-b]pyridin-2-one formed were collected by filtration, and the crystal form of the crystalline products was confirmed.

[3] = 80° C., 1 week, sealed glass bottle
[4] = 80° C., 2 weeks, sealed glass bottle

solubility ([1]; solvent 2-propanol): < 2700 µg/mL | solubility ([1]; solvent acetone): 6500 µg/mL (≈ 16.2 mM) | solubility ([1]; solvent acetonitrile): 8100 µg/mL (≈ 20.2 mM) | solubility ([1]; solvent chloroform): > 200000 µg/mL | solubility ([1]; solvent ethanol): 2600 µg/mL (≈ 6.49 mM) | solubility ([1]; solvent ethyl acetate): 3400 µg/mL (≈ 8.49 mM) | solubility ([1]; solvent methanol): 5600 µg/mL (≈ 14 mM) | solubility ([1]; solvent methylethylketone): 6800 µg/mL (≈ 17 mM) | solubility ([1]; solvent tetrahydrofuran): 26000 µg/mL (≈ 64.9 mM) | solubility ([1]; solvent toluene): 5200 µg/mL (≈ 13 mM) | solubility ([1]; solvent trifluoroethanol): > 200000 µg/mL | crystal form ([1]; crystallized from 2-propanol): Form A | crystal form ([1]; crystallized from acetone): Form A | crystal form ([1]; crystallized from acetonitrile): Form B | crystal form ([1]; crystallized from chloroform): Form A | crystal form ([1]; crystallized from ethanol): Form A | crystal form ([1]; crystallized from ethyl acetate): Form A | crystal form ([1]; crystallized from methanol): Form A | crystal form ([1]; crystallized from methylethylketone): Form A | crystal form ([1]; crystallized from tetrahydrofuran): Form A | crystal form ([1]; crystallized from toluene): Form G | crystal form ([1]; crystallized from trifluoroethanol): Form D | crystal form 1 week later ([2]; suspended in 1-butanol): Form A | crystal form 2 weeks later ([2]; suspended in 1-butanol): Form A | crystal form 1 week later ([2]; suspended in acetone): Form G | crystal form 2 weeks later ([2]; suspended in acetone): Form G | crystal form 1 week later ([2]; suspended in ethyl acetate): Form A + Form G | crystal form 2 weeks later ([2]; suspended in ethyl acetate): Form G | crystal form 1 week later ([2]; suspended in isopropyl alcohol): Form A | crystal form 2 weeks later ([2]; suspended in isopropyl alcohol): Form A | crystal form 1 week later ([2]; suspended in methanol): Form G | crystal form 2 weeks later ([2]; suspended in methanol): Form G | crystal form 1 week later ([2]; suspended in methylethylketone): Form G | crystal form 2 weeks later ([2]; suspended in methylethylketone): Form G | crystal form 1 week later ([2]; suspended in tetrahydrofuran): Form G | crystal form 2 weeks later ([2]; suspended in tetrahydrofuran): Form G | crystal form 1 week later ([2]; suspended in toluene): Form G | crystal form 2 weeks later ([2]; suspended in toluene): Form G
Compound: CCn1c(=O)n(-c2ccc(Oc3nc4cccnc4n3C)cc2)c2nccc(C)c21 [Form A, 1-ethyl-7-methyl-3-{4-[(3-methyl-3H-imidazo[4,5-b]pyridin-2-yl)oxy]phenyl}-1,3-dihydro-2H-imidazo[4,5-b]pyridin-2-one]

appearance [3]: no change | area percentage (%) of HPLC peak area of main form [3]: 99.7% | crystal form [3]: Form G | appearance [4]: no change | area percentage (%) of HPLC peak area of main form [4]: 99.6% | crystal form [4]: Form G | appearance (prestorage): white crystalline | area percentage (%) of HPLC peak area of main form (prestorage): 99.7% | crystal form (prestorage): Form G
Compound: CCn1c(=O)n(-c2ccc(Oc3nc4cccnc4n3C)cc2)c2nccc(C)c21 [Form G, 1-ethyl-7-methyl-3-{4-[(3-methyl-3H-imidazo[4,5-b]pyridin-2-yl)oxy]phenyl}-1,3-dihydro-2H-imidazo[4,5-b]pyridin-2-one]
